Assay: gradient 5% acetonitrile 3 min, to 50% in 2 min, to 85% in 15 min, held 3 min, 100 µL/min
Conditions: column: Zorbax Extend-C18 2.1 x 50 mm; eluents: water / acetonitrile, 0.1% formic acid
Procedure, shortened: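 Over 3 months, pure standards in mixtures of ~100 molecules were run by HPLC coupled to a quadrupole time-of-flight mass spectrometer in positive and negative ionization mode. The column was a Zorbax Extend-C18 (2.1 × 50 mm, 1.8 μm) at 100 μL/min, eluted with water and acetonitrile each holding 0.1% formic acid, with 40 μL dead and 900 μL dwell volumes. Retention time was determined from adduct peaks chosen by software and checked manually.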

Structure (SMILES)	RP-LC retention time
Cc1nnc2ccc(N3CCN(C(=O)CSc4nc5ccccc5s4)CC3)nn12	652 s
COc1ccc(C(=O)N2CCn3c(nnc3C(C)C)C2)c(OC)n1	588 s
CN1C(=O)c2cccnc2Sc2cc(NC(=O)CCc3ccccc3)ccc21	818 s
Cn1nc(CO)c2c1CCN(C(=O)c1ccc3[nH]ccc3c1)C2	591 s
CC(NC(=O)c1ccc2nc(-c3ccccc3)cn2c1)c1ccccn1 (stereo not given)	572 s
Cn1c(=O)c2c(nc3n2CC(=O)N(CCc2ccccc2)C3)n(C)c1=O	657 s
O=C(NC1CC1)C1CCN(C(=O)c2ncn3c2COC(c2ccc(F)cc2)C3)CC1 (stereo not given)	630 s
O=C(NCCn1c(=O)n(Cc2ccccc2)c2cccnc21)c1cnccn1	680 s
CCc1nn(C)c(=O)c2cc(S(=O)(=O)NC(C)c3ccccc3)cn12 (stereo not given)	870 s
O=C(NCc1ccco1)N1CCc2nn(Cc3ccccc3)c(=O)n2CC1	687 s
O=C(N[C@H]1C[C@@H]2C[C@H]1N(S(=O)(=O)c1cccs1)C2)c1ccccc1	833 s
COCCCNC(=O)CN1C(=O)C2CCCCN2c2ccc(C(=O)N3CCCCC3)cc21 (stereo not given)	729 s
O=C(NCCC1=CCCCC1)c1nnc(-c2ccc(S(=O)(=O)N3CCCCC3)cc2)o1	1160 s
CCOc1ccc(Cc2nc(-c3cccc(-c4ccnn4C)c3)no2)cc1OCC	1090 s
COc1cc(N)c(Cl)cc1C(=O)N[C@@H]1CCN(CCCOc2ccc(F)cc2)C[C@@H]1OC	772 s
COc1ccc(NC(=O)N2CCCC2c2nc(-c3ccc(F)cc3F)no2)c(OC)c1 (stereo not given)	940 s
Cc1ccc(NC(=O)N2CCC(n3cnc4cc(Cl)ccc4c3=O)CC2)cc1F	904 s
CCn1cc(C(=O)NCc2ccc(SC)cc2)c(=O)c2ccc(C)nc21	997 s
O=C(CN1C(=O)S/C(=C\c2ccccc2)C1=O)NCCN1C(=O)CSC1=O	746 s
CSc1ccc(NC(=O)N2CCc3nc[nH]c3C2)cc1	590 s
CNC(=O)[C@@H]1CN(C(=O)c2cnc(C)cn2)C[C@H]1c1n[nH]c(C)n1	549 s
c1ccc2[nH]c(-c3ccncc3)nc2c1	624 s
Cc1cccc(C)c1NS(=O)(=O)c1ccc(-c2c(C)noc2C)cc1	964 s

Structure (SMILES)	RP-LC retention time
C=CCn1c(=O)c2ccccc2n(Cc2nc(-c3ccc(OC(C)C)cc3)no2)c1=O	1130 s
O=C1CCCCC(Cc2ccccc2)(C(=O)NCc2ccc(Cl)cc2)N1 (stereo not given)	866 s
CN(C)S(=O)(=O)c1ccc(COc2ccc(F)cc2)o1	875 s
CC(C)(C)C(=O)N1CCC(C(=O)Nc2nnc(CCCc3ccccc3)s2)CC1	893 s
Cc1ccc(CNC(=O)c2ccc3c(c2)CN(Cc2scnc2C)CCO3)cc1	648 s
CC1CN(c2ccc(Br)cc2)c2nc3c(c(=O)n(CC(=O)O)c(=O)n3C)n2C1 (stereo not given)	829 s
COc1ccc(CNC(=O)CN2CCN(Cc3ccccc3C)C(=O)C2=O)cc1	715 s
O=c1c(=O)n(-c2ccccc2)ccn1Cc1nc(-c2ccc(Br)cc2)no1	901 s
Cc1nn2c(CNC(=O)c3ccc(F)c(F)c3)c(C)nc2s1	634 s
Cc1nc(C)c(C(=O)Nc2nc(-c3ccc(Cl)cc3)c(C)s2)s1	1060 s
COc1ccc2c(c1)C1(CCN(C(=O)c3ccc(F)cc3)C1)C(=O)N2 (stereo not given)	714 s
COc1ccc(OC)c(CNC(=O)c2nc(N3CCOCC3)c3ccccc3n2)c1	686 s
CC(C)c1cc(C(=O)Nc2ccc(Cl)cc2F)no1	1140 s
O=C(CCC1CCN(c2cc(NC3CC3)ncn2)CC1)NCc1cnccn1	564 s
COc1cc(NS(=O)(=O)c2ccc3c(c2)C(=O)N(C)c2ncccc2O3)cc(OC)c1	868 s
O=C(C1=CN(c2ccc(Br)cc2)c2ccccc2S1(=O)=O)N1CCCC1	838 s
Cc1ccc(-c2noc(Cc3nc(-c4ccc5c(c4)OCO5)cs3)n2)cc1	1220 s
COCCN(CC(=O)N1CCc2sccc2C1COc1cccc(F)c1)C(=O)CC(C)C (stereo not given)	976 s
CCC(=O)N1CCc2[nH]nc(C(=O)NCCCc3ccccc3)c2C1	709 s
CCc1ccccc1NC(=O)Cc1nnc(-c2cnccn2)o1	685 s
C=CCNC(=O)c1cn(-c2ccc(-c3nc(CC)no3)cn2)cn1	750 s
O=C(NCCCc1ccccc1)C1CCN(C(=O)N2CCOc3ccc(Cl)cc32)CC1	948 s

From the METLIN SMRT retention time set (Domingo-Almenara et al. 2019)
